Data set [1] relates to CD-1 mice. In words: pain models in vivo, overall. Set-up: species or system mouse. Conditions: i.v. As for the experimental part: (§1) All experiments were performed in accordance with the recommendations in the “Principles of Laboratory Animal Care” and after approval by the Animal Care and Use Committee of the Branch of the IBCh RAS (Pushchino, Russia). Adult male CD-1 mice (Animal Breeding Facility Branch of Shemyakin-Ovchinnikov Institute of Bioorganic Chemistry, Russian Academy of Sciences, Pushchino, Russia) weighing 20–25 g were used. Animals were allowed to acclimate in the laboratory for at least five days. Mice were housed at room temperature (23 ± 2 °C) on a 12 h light–dark cycle with food and water available ad libitum. Polypeptides or vehicle was administered intravenously 15 min before testing.
(§2) The significance of the data was determined by analysis of variance (ANOVA) followed by Tukey’s test. Data are presented as mean ± S.E.

Data set [2] deals with CD-1 mice. In words: core body temperature (rectal measuring). It is filed as in vivo, mouse. The note with it: for change in core body temperature: n = 7; for core body temperature, in words: rectal measuring, mice, vs saline. The procedure: Admittedly, hyperthermia is considered a critical side effect of TRPV1 antagonists, so we assessed the effect of the polypeptides on body temperature. Polypeptides were administered intravenously at doses 0.1 mg/kg and 0.5 mg/kg, and rectal temperature was monitored (Figure 5a,b).
as §1, §2
The MLT1404 Rectal Temperature Probe and Chart Power Lab (ADInstruments Inc., Colorado Springs, CO, USA) was used to record body temperature. During recording, the animals were placed in a MLA5018 Rodent Restrainer (ADInstruments Inc., Colorado Springs, CO, USA). The adaptation period was 20 min. Core body temperature was recorded every minute for 20 min before and 100 min after test compound administration. AMG9810 was dissolved in DMSO and was injected intraperitoneally.

Data set [3] relates to CD-1 mice. In words: capsaicin-induced acute pain test. It is filed as in vivo, mouse. The note with it: n = 9; for pain-related behavior after capsaicin, reduction: 0.1 mg/kg i.v. 15 min before intraplantar capsaicin (3 µg/10 µL), "~44% of response"; for pain-related behavior after capsaicin, in words: 0.1 mg/kg i.v., vs saline.
From the text: Because capsaicin is a selective agonist of the TRPV1 receptor, we tested the efficacy of APHC1 and APHC3 as TRPV1 receptor antagonists using the capsaicin-induced pain model. Intraplantar injection of capsaicin evokes pain-related behavior such as licking and shaking the injected paw. TRPV1 knockout mice are insensitive to the capsaicin test and most antagonists that block capsaicin-induced currents in vitro also block capsaicin induced pain-related behavior in mice.
as §1, §2
Intraplantar injection of capsaicin (3 µg/10 µL in 10% ethanol/90% saline) was used to elicit capsaicin-induced acute pain [36]. Immediately after the capsaicin injection, mice were placed inside glass cylinders for observation. Intraplantar injection of capsaicin evoked licking and shaking of the injected paw in mice. The duration of episodes of licking and paw shaking were recorded.

Data set [4] deals with p2X3. In words: p2X3 activity, oocyte electrophysiology or agonist-induced fluorescence readout. Conditions: concentrations of up to 2 μM; data not shown. Type of data set: cell-based.
Data set [5] concerns ASIC3. In words: ASIC3 activity, oocyte electrophysiology or agonist-induced fluorescence readout. Conditions: concentrations of up to 2 μM; data not shown. Type of data set: cell-based.
Data set [6] concerns TRPA1. In words: TRPA1 activity, oocyte electrophysiology or agonist-induced fluorescence readout. The note with it: concentrations of up to 2 μM; data not shown. It is filed as cell-based. An excerpt: (§3) The formalin test is a complex in vivo model of pain where TRPV1’s function is more integrative than perceptive. In the mouse, intraplantar injections of formalin produce a biphasic behavioral reaction. The molecular mechanisms underlying formalin-induced pain are based on tissue damage, non-specific activation of nociceptors and direct activation of TRPA1 receptors (measured in phase I) that drive the local neurogenic inflammation and CNS sensitization (measured in phase 2). APHC1 and APHC3 were tested on TRPA1 for inhibitory/activation effects.

In data set [7] the test system is serine proteases. The note with it: ref [14],[16]; cited from earlier work. An excerpt: (§4) Polypeptide molecules typically have a greater specific activity at a particular receptor than do small molecule agonists, which makes them attractive for researchers and pharmaceutical companies. We have previously reported the isolation of a polypeptide modulator of TRPV1 from a homogenized extract of the sea anemone Heteractis crispa named APHC1 and its partial in vivo characterization. Two homological polypeptides (APHC2 and APHC3) were subsequently found in the same extract, but their biological activity has not yet been properly characterized. APHC1 and APHC3 are weak ...

The subject of data set [8] is TRPV1-dependent normal and diabetic bladder smooth muscle contractility. Conditions: ref [17]; cited from earlier work.
From the text: as §4

The test system of data set [9] is CD-1 mice. In words: formalin test. Type of data set: in vivo, mouse. Conditions: for formalin-induced response: 0.01 mg/kg; for inhibition of second phase of formalin test: 10.01–60 min; for effect on first phase of formalin test, in words / effect on second phase of formalin test, in words: vs saline.
From the text: as §3, §1, §2
Formalin (10 μL 2% in saline) was injected intradermally into the left hind paw. […] This test produces a distinct biphasic response. The total duration of paw flinching during the early phase (0–10 min) and late phase (10.01–60 min) were summed.

The subject of data set [10] is TRPV3. In words: TRPV3 activity, oocyte electrophysiology or agonist-induced fluorescence readout. It is filed as cell-based. Conditions: concentrations of up to 2 μM; data not shown.
Data set [11] deals with TRPV1. In words: low pH-induced TRPV1 receptor currents/activation. The note with it: pH 5.5. It is filed as cell-based. An excerpt:
The residues responsible for APHC’s activity are not determined. […] These differences in pharmacology were expressed further in the in vivo results.

For data set [12], the system named is CD-1 mice. Conditions: 0.1 mg/kg, intravenous; ref [15],[16]; cited from earlier work. As for the experimental part:
The hot plate test is a most simple for TRPV1 inhibitor characterization since TRPV1 play significant role in temperature sensation. Effect of APHC1 and APHC3 on thermal nociception at dose 0.1 mg/kg after intramuscular, intraperitoneal and intravenous administration was measured before. […] Here we assessed changes in thermal nociception to a noxious thermal stimuli elicited by different doses of APHC1 and APHC3 to determine minimal effective dose. Intravenous administration ...

Data set [13] relates to CD-1 mice. In words: hot plate test. It is filed as in vivo, mouse. The procedure:
The hot plate test is a most simple for TRPV1 inhibitor characterization since TRPV1 play significant role in temperature sensation. Effect of APHC1 and APHC3 on thermal nociception at dose 0.1 mg/kg after intramuscular, intraperitoneal and intravenous administration was measured before. […] Here we assessed changes in thermal nociception to a noxious thermal stimuli elicited by different doses of APHC1 and APHC3 to determine minimal effective dose. […] Both polypeptides reached maximal effect at 0.1 mg/kg.
as §1, §2
Sensitivity to a thermal stimulus was determined by hind paw withdrawal or licking latency using a Hot-Plate Analgesia Meter (Columbus Instruments, Columbus, OH, USA) at 55 °C.
(In general: Thermal pain tests record how soon the animal reacts.)

[14] abbreviates: i.v., 15 min before test, 55 °C, n = 9 per group, vs saline.

Entries after “also recorded” stand apart in the source; their conditions may differ.

As for “APHC3: polypeptide from Heteractis crispa highly homologous to APHC1, differing in four of 56 amino acids; produced recombinantly in E. coli (GSICLEPKVVGPCTAYFPRFYFNSETGKCTPFIYGGCEGNGNNFETLRACRGICRA; left off: TRX, end not stated, cleaved)”, in [1], the “doses with antinociceptive and analgesic activity in vivo” value lay in the range of 0.01 to 0.1 mg/kg. In addition, the “change in core body temperature” value in data set [2] (0.1 mg/kg i.v., 60 min after administration) was −0.6 °C. In addition, the “change in core body temperature” value in data set [2] (0.5 mg/kg i.v., not statistically significant) was −0.4 °C. In addition, the “core body temperature, in words” value in data set [2] is given as “did not cause hyperthermia; also recorded: modest hypothermic effect; also recorded: moderate decrease in core body temperature”. In [3], the “pain-related behavior after capsaicin, reduction” value is recorded as ~ 44% and the “pain-related behavior after capsaicin, in words” value is given as “significantly reduced the behavioral response to capsaicin; also recorded: significantly reduced pain-related behavior”. Besides, in data set [4], the “agonistic/antagonistic activity at p2X3” value was “neither agonistic nor antagonistic activity”. Further, the “agonistic/antagonistic activity at ASIC3” value in data set [5] was “neither agonistic nor antagonistic activity”. Moreover, the “agonistic/antagonistic activity at TRPA1” value in data set [6] is “neither agonistic nor antagonistic activity”. For the same substance, the “inhibition of serine proteases” value in data set [7] is given as “weak inhibitors”. For the same substance, in [8], the “modulation of TRPV1-dependent normal and diabetic bladder smooth muscle contractility” value is reported as “modulate”. In [9], the formalin-induced response entry is on record as “no significant influence”. For the same substance, in data set [9] (0.1 mg/kg i.v., n = 9), the “inhibition of second phase of formalin test” value is on record as 86%; the “effect on first phase of formalin test, in words” value is on record as “did not affect the first phase of the response; also recorded: no significant effect on phase 1”; the “effect on second phase of formalin test, in words” value is “almost completely blocked phase 2; also recorded: significantly inhibited the second phase”. Besides, in [10], the “agonistic/antagonistic activity at TRPV3” value is reported as “neither agonistic nor antagonistic activity”. Also, in data set [11], the “effect on low pH-induced TRPV1 activation, in words” value is “inhibited acid-induced (pH 5.5) activation of the receptor”. Further, the “paw withdrawal latency, hot plate, previous studies” value in data set [12] is “significantly prolonged paw withdrawal latency”. For the same substance, the “paw withdrawal latency, hot plate” value in data set [13] (setting [14]) is “Dose dependent inhibition of thermal nociception; also recorded: significantly increased paw withdrawal latency”. Moreover, in data set [13] (i.v., 55 °C, n = 9), the “dose at which maximal effect is reached, hot plate” value was determined as 0.1 mg/kg.

As to “APHC1: polypeptide modulator of TRPV1 from sea anemone Heteractis crispa; homologous to BPTI/Kunitz type serine-protease inhibitors; produced recombinantly in E. coli (GSICLEPKVVGPCTAYFRRFYFDSETGKCTVFIYGGCEGNGNNFETLRACRAICRA; left off: TRX, end not stated, cleaved)”, the “doses with antinociceptive and analgesic activity in vivo” value in [1] lay within 0.01 to 0.1 mg/kg. The “change in core body temperature” value in [2] (0.1 mg/kg i.v., in the 30 min after administration, stayed at this level) is −0.8 °C. Also, the “change in core body temperature” value in data set [2] (0.5 mg/kg i.v., at the end of data acquisition time) is −2.1 °C. The “core body temperature, in words” value in [2] is given as “did not cause hyperthermia; also recorded: significantly decreased core body temperature in both tested doses; also recorded: moderate decrease in core body temperature”. In addition, in data set [3], the “pain-related behavior after capsaicin, reduction” value was ~ 44% and the “pain-related behavior after capsaicin, in words” value was “significantly reduced the behavioral response to capsaicin; also recorded: significantly reduced pain-related behavior”. Further, the “agonistic/antagonistic activity at p2X3” value in data set [4] is given as “neither agonistic nor antagonistic activity”. Further, the “agonistic/antagonistic activity at ASIC3” value in [5] is “neither agonistic nor antagonistic activity”. Further, in [6], the “agonistic/antagonistic activity at TRPA1” value is “neither agonistic nor antagonistic activity”. In data set [7], the “inhibition of serine proteases” value is listed as “weak inhibitors”. The “modulation of TRPV1-dependent normal and diabetic bladder smooth muscle contractility” value in data set [8] is listed as “modulate”. The formalin-induced response entry in [9] is recorded as “no significant influence”. The “attenuation of first phase of formalin test” value in data set [9] (0.1 mg/kg i.v., 0–10 min, n = 9, "39% of response") worked out at 39%. Further, in data set [9] (0.1 mg/kg i.v., n = 9), the “inhibition of second phase of formalin test” value stood at 70%; the “effect on first phase of formalin test, in words” value was “significantly attenuated the first phase”; the “effect on second phase of formalin test, in words” value is on record as “significantly inhibited the second phase”. In addition, the “agonistic/antagonistic activity at TRPV3” value in data set [10] is “neither agonistic nor antagonistic activity”. In addition, the “effect on low pH-induced TRPV1 activation, in words” value in data set [11] is “unable to observe any effect”. For the same substance, the “paw withdrawal latency, hot plate, previous studies” value in data set [12] is “significantly prolonged paw withdrawal latency”. For the same substance, the “paw withdrawal latency, hot plate” value in [13] (0.001 mg/kg i.v., data not shown) is “did not prolong paw withdrawal latency”. The “antinociception in hot plate test” value in [13] (0.01 mg/kg i.v., 55 °C, n = 9) is on record as “produced antinociception”. The “paw withdrawal latency, hot plate” value in data set [13] (setting [14]) was “Dose dependent inhibition of thermal nociception; also recorded: significantly increased paw withdrawal latency”. For the same substance, the “dose at which maximal effect is reached, hot plate” value in data set [13] (i.v., 55 °C, n = 9) is on record as 0.1 mg/kg.

Values taken from publication PMC3877906, “Polypeptide Modulators of TRPV1 Produce Analgesia without Hyperthermia” (Marine Drugs, 2013).
